Laboratory results: article PMC8213057, “Targeting ALK2: An Open Science Approach to Developing Therapeutics for the Treatment of Diffuse Intrinsic Pontine Glioma” (Journal of Medicinal Chemistry, 2020)
“And” between values parts separate entries of the source, which are not always exact repeats. Equal entries are not always repeated.

Key:
[1] = target: T1, TXK (Homo sapiens, UniProt P42681); test: biochemical; conditions: read-out: % enzyme activity, 1 μM; Run 1, Run 2
T1 sequence (P42681 1-527): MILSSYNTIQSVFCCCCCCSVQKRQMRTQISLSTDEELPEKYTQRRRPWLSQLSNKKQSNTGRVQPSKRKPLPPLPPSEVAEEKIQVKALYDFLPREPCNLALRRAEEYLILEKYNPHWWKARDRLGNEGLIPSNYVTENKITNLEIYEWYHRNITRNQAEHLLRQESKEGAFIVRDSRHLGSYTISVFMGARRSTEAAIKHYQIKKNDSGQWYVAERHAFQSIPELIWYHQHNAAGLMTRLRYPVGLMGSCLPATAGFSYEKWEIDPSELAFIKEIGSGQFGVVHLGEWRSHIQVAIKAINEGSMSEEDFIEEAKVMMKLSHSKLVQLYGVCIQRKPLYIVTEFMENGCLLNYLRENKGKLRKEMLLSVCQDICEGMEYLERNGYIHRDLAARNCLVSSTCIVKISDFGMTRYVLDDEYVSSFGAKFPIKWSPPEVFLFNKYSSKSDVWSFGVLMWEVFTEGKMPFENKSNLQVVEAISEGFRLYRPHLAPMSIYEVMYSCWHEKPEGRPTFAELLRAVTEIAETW

[2] = tested on: MINK/MINK1
[3] = target: CAMK2d (Homo sapiens, UniProt Q13557); conditions: 1 μM; Run 1, Run 2
Sequence of CAMK2d (Q13557 whole entry): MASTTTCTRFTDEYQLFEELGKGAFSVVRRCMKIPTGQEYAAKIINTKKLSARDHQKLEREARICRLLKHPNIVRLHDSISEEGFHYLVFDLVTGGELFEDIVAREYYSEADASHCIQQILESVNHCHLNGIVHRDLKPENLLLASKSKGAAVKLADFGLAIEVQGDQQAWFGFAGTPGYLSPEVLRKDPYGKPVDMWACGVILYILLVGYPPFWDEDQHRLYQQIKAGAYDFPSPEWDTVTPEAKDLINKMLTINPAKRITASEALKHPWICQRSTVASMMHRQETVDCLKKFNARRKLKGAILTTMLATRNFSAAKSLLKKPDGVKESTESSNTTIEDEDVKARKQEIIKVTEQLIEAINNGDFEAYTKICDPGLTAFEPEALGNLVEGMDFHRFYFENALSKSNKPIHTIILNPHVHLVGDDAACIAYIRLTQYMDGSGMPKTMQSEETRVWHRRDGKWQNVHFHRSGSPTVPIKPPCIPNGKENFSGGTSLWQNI

[4] = target: IR (Homo sapiens, UniProt P06213); test: biochemical; conditions: read-out: % enzyme activity, 1 μM; Run 1, Run 2
Sequence of IR (P06213 28-1382): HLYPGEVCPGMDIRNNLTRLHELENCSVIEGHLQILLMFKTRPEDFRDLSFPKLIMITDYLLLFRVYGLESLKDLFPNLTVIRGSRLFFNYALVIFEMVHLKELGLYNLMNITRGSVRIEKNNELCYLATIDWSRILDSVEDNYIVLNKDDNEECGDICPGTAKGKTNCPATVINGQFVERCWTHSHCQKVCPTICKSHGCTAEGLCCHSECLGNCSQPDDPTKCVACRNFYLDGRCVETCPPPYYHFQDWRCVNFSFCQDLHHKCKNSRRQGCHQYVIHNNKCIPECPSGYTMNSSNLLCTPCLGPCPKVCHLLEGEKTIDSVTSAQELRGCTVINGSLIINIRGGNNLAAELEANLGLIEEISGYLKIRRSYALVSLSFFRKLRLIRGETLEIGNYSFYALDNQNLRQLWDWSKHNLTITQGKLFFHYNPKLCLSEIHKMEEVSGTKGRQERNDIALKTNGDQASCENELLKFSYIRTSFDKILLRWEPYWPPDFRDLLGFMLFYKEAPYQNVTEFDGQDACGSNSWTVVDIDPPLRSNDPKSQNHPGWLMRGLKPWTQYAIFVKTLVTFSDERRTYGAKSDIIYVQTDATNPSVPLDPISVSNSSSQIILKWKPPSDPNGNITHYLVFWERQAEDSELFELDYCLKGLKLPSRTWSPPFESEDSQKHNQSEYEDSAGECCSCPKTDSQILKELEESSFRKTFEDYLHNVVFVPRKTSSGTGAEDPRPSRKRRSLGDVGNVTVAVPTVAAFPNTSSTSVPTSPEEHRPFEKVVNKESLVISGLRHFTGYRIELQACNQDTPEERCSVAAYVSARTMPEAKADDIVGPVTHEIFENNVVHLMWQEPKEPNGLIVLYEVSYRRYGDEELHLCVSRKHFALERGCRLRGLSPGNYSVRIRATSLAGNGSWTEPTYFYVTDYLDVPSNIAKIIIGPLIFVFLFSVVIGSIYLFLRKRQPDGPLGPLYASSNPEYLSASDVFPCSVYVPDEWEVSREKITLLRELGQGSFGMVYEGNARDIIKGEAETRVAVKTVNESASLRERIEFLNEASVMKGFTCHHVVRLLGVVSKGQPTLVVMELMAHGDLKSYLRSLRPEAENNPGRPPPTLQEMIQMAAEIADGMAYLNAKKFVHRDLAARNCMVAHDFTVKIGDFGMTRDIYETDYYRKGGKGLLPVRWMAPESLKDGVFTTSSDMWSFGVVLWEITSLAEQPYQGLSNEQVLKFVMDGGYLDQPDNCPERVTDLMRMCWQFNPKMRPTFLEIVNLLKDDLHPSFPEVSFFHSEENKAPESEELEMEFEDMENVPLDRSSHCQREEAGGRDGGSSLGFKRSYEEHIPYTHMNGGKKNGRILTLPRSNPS

[5] = target: RIPK3 (Homo sapiens, UniProt Q9Y572); conditions: 1 μM; Run 1, Run 2
Sequence of RIPK3 (Q9Y572 whole entry): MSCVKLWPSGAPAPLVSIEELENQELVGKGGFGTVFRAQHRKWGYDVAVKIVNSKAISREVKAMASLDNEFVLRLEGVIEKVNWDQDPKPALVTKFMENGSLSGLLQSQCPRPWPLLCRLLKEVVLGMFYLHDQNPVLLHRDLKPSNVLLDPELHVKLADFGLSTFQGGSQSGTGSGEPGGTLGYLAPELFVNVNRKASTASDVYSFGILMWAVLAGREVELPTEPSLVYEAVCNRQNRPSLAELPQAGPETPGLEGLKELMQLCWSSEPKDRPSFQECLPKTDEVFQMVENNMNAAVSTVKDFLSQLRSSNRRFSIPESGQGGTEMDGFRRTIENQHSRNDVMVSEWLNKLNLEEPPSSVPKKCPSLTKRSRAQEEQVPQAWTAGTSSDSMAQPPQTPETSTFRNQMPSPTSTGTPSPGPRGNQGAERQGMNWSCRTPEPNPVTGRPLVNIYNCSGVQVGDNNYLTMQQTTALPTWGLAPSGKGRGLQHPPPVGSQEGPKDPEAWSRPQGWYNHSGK

[6] = target: HIPK3 (Homo sapiens, UniProt Q9H422); test: biochemical; conditions: read-out: % enzyme activity, 1 μM; Run 1, Run 2
Sequence of HIPK3 (Q9H422 whole entry): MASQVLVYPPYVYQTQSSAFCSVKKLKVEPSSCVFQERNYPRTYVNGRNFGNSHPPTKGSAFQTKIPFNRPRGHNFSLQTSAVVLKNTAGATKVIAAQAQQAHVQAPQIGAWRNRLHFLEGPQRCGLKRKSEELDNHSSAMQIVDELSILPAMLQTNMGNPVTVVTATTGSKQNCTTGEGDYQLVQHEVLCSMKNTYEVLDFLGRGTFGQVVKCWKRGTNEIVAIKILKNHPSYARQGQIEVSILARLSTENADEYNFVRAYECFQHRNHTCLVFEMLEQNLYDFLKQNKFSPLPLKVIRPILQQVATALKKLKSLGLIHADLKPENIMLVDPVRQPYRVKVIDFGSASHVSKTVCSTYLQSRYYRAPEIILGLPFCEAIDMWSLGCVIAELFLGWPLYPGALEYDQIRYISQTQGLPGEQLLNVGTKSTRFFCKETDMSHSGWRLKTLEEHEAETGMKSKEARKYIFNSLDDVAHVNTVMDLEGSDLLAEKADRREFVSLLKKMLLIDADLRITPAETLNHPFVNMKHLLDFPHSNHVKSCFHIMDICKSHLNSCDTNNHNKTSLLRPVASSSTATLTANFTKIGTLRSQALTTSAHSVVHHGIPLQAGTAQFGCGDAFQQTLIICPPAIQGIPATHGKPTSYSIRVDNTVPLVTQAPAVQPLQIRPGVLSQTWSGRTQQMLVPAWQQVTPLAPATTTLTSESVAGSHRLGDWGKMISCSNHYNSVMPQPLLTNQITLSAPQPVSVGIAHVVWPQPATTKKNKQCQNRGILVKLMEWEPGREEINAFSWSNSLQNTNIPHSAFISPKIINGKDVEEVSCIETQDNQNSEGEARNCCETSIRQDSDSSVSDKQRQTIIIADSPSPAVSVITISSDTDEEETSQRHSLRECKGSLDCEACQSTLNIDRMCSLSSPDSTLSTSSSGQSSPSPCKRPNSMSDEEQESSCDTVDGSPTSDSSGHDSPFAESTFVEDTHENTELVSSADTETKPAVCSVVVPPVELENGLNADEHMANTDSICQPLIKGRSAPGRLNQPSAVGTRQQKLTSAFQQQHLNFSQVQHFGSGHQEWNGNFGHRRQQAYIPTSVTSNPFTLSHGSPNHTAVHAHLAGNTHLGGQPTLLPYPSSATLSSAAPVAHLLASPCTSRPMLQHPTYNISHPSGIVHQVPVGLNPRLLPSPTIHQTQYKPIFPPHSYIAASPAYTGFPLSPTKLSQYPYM

[7] = target: T2, TAOK1 (Homo sapiens, UniProt Q7L7X3); test: 375-member kinase panel; format: biochemical; conditions: Run 1, Run 2; for % enzyme activity: 1 μM; for remaining activity at 1 µM: read-out: % enzyme activity, 1 μM
T2 construct: purchased Reaction Biology Corporation
T2 sequence (Q7L7X3 1-1001): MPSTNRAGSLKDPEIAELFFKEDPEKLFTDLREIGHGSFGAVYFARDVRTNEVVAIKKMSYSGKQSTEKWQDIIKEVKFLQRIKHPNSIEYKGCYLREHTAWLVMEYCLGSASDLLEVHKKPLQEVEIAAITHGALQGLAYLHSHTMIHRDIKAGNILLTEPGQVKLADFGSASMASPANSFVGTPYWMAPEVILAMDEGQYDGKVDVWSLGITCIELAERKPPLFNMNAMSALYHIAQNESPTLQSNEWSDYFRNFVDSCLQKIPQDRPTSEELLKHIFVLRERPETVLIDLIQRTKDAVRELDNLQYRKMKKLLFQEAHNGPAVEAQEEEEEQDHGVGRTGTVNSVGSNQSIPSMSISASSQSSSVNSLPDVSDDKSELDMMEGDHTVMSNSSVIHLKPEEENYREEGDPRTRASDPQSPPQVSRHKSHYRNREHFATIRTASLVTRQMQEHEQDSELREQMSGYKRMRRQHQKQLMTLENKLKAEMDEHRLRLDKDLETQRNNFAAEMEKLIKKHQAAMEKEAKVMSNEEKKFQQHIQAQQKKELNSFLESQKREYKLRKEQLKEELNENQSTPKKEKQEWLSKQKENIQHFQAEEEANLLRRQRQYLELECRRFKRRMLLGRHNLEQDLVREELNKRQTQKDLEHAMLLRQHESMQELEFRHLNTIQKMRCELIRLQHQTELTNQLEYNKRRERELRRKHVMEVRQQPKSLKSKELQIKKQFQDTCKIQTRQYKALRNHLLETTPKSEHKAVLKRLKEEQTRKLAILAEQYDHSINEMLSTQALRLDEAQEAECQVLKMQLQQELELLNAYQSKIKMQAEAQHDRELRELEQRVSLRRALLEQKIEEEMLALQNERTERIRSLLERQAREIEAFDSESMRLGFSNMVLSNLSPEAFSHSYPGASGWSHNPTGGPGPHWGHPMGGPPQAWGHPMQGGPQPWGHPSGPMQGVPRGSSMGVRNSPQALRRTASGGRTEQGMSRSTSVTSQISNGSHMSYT

[8] = target: T3, MYLK4 (Homo sapiens, UniProt Q86YV6); conditions: 1 μM; Run 1, Run 2
T3 sequence (Q86YV6 1-388): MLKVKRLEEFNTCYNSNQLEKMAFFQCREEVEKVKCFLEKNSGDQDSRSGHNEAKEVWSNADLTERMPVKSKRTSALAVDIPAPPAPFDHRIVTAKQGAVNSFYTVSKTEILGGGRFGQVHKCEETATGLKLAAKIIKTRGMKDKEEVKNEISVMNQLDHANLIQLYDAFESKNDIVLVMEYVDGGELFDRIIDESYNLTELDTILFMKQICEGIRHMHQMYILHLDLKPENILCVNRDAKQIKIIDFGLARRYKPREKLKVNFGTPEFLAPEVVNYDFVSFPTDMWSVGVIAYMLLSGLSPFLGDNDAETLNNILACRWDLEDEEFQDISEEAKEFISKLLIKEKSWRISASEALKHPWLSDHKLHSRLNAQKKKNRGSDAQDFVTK

[9] = target: PLK3 (Homo sapiens, UniProt Q9H4B4); conditions: 1 μM; Run 1, Run 2
[10] = target: CAMK2b (Homo sapiens, UniProt Q13554); test: biochemical; conditions: read-out: % enzyme activity, 1 μM; Run 1, Run 2
Sequence of CAMK2b (Q13554 whole entry): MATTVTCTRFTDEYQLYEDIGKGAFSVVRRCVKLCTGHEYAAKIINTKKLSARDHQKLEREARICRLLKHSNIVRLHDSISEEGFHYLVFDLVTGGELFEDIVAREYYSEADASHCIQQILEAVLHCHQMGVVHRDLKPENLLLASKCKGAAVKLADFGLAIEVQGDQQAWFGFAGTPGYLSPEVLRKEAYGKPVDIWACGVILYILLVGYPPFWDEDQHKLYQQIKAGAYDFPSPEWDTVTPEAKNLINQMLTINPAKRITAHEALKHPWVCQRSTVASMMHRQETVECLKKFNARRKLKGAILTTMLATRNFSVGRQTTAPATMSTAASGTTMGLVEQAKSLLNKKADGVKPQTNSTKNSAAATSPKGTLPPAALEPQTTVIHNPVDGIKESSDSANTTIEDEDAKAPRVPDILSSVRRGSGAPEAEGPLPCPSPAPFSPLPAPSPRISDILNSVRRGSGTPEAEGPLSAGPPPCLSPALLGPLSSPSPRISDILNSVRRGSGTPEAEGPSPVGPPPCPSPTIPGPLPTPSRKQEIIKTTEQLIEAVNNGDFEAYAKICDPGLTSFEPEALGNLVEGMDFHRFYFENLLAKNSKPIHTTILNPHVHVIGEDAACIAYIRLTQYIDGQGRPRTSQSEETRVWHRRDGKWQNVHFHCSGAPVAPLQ

[11] = target: PIM2 (Homo sapiens, UniProt Q9P1W9); test: biochemical; conditions: read-out: % enzyme activity, 1 μM; Run 1, Run 2
Sequence of PIM2 (Q9P1W9 whole entry): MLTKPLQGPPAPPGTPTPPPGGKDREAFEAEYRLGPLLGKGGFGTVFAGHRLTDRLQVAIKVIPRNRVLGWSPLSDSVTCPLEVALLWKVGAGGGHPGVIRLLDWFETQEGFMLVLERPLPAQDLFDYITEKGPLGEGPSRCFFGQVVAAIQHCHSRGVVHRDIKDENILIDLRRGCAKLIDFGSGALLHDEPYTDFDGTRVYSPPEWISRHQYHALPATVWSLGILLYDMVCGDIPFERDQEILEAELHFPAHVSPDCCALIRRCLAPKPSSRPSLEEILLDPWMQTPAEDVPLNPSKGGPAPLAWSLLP

SMILES | remaining activity at 1 µM [1] | % enzyme activity at 1 μM [2] | % enzyme activity [3] | remaining activity at 1 µM [4] | % enzyme activity [5] | remaining activity at 1 µM [6] | % enzyme activity [7] | remaining activity at 1 µM [7] | % enzyme activity [8] | % enzyme activity [9] | remaining activity at 1 µM [10] | remaining activity at 1 µM [11]
COc1cc(-c2cncc(-c3ccc(N4CCN(C)CC4)cc3)c2C)cc(F)c1C(N)=O [Compound 26a, 2-Fluoro-6-methoxy-4-(4-methyl-5-(4-(4-methylpiperazin-1-yl)phenyl)pyridin-3-yl)benzamide] | 101% | 24.1% and 22.6% | 94.73% | 102% | 101.40% | 97.8% | 60.19% | 60.3% | 95.79% | 93.70% | 83.9% | 99.2%
COc1cc(-c2cncc(-c3ccc(N4C[C@@H](C)N(C)[C@@H](C)C4)cc3)c2C)cc(F)c1C(N)=O [Compound 26c, 2-Fluoro-6-methoxy-4-(4-methyl-5-(4-((3R,5S)-3,4,5-trimethylpiperazin-1-yl)phenyl)pyridin-3-yl)benzamide] | 98.2% | 30.2% and 29.6% | 95.15% | 100% | 102.83% | 90.4% | 60.59% | 62.2% | 102.67% | 94.47% | 92.8% | 99.7%
